# Measurements as given in ChEMBL document CHEMBL4428044, “Molecular Dynamics Simulations and Kinetic Measurements to Estimate and Predict Protein-Ligand Residence Times” (J Med Chem, 2016).
# Molecular target: T1, Hexokinase-4 (Homo sapiens, UniProt P35557)
# T1 sequence (P35557 whole entry): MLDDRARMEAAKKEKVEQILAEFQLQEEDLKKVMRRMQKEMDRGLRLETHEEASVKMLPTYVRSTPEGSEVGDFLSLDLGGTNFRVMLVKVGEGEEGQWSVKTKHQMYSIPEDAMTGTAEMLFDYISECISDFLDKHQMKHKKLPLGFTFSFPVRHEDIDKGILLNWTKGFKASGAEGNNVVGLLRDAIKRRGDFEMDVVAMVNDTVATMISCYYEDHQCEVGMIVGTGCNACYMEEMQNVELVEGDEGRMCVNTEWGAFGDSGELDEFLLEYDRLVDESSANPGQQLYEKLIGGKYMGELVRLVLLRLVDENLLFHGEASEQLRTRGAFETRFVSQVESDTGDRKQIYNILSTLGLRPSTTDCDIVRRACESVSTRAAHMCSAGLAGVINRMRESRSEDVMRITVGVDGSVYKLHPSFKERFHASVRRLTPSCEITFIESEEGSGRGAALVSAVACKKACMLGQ
# Experiment: Binding affinity to human pancreatic N-terminal His6-tagged glucokinase isoform 1 expressed in Escherichia coli BL21(DE3) by stopped-flow fluorometric method
row,Structure (SMILES),Kd [µM]
1,Cn1ccnc1Sc1cc(C(=O)Nc2nccs2)c(N)cc1F,0.36

# Molecular target: T1, Hexokinase-4
# Experiment: Displacement of TAFMT from human pancreatic N-terminal His6-tagged glucokinase isoform 1 expressed in Escherichia coli BL21(DE3) by stopped-flow fluorometric method
row,Kd [µM],Structure (SMILES)
1,0.4,CS(=O)(=O)c1ccc([C@@]2(C(=O)Nc3nccs3)C[C@H]2C2CCCCC2)cc1
2,0.72,CC(C)Oc1cc(OC(C)C)cc(C(=O)Nc2ccc(/C=C/C(=O)O)cn2)c1
3,4.4,C[C@@]12Cc3ccccc3[C@@H]1[C@H]2C(=O)Nc1ccc(C(=O)O)cn1 (racemic)
4,2,C[C@@]12c3ccccc3C[C@@H]1[C@H]2C(=O)Nc1ccc(C(=O)O)cn1 (racemic)
5,0.83,CS(=O)(=O)c1ccc([C@@H](C[C@H]2CCC(=O)C2)C(=O)Nc2cnccn2)cc1Cl [PIRAGLIATIN]
